Source: article PMC11435248, “Auraptene Boosts the Efficacy of the Tamoxifen Metabolites Endoxifen and 4-OH-Tamoxifen in a Chemoresistant ER+ Breast Cancer Model” (Pharmaceutics, 2024)

Target: T1, eIF4A1 (Homo sapiens, UniProt P60842)
T1 construct: recombinant eIF4A1 from pET19bm, 10-histidine tract at the N-terminal with Prescission Protease site, expressed in E. coli Rosetta Star
Assay: fluorescence quenching of purified recombinant eIF4A ([…] auraptene)
Type: binding

T1 sequence (P60842 2-406): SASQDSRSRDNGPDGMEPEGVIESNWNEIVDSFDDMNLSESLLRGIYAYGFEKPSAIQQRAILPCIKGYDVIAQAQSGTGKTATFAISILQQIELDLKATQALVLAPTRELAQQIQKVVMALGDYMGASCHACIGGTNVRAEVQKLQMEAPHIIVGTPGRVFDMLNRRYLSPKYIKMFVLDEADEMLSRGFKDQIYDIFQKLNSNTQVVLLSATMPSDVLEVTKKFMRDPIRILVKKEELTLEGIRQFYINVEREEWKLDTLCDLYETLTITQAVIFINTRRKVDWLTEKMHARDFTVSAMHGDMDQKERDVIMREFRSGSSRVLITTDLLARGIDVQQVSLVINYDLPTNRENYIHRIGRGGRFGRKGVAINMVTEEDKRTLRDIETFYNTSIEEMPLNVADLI

CC(C)=CCC/C(C)=C/COc1ccc2ccc(=O)oc2c1 [Aur, auraptene]
fluorescence quenching of purified recombinant eIF4A (50 and 100 μM auraptene): a reduction in the emission intensity was observed, resulting from a quenching phenomenon, suggesting that auraptene binds with the eIF4A
